# Measured values as given in patent US20240180880A1, “METHODS OF USING EHMT2 INHIBITORS IN TREATING OR PREVENTING BLOOD DISORDERS” (Epizyme, Inc., priority 2017, published 2024).
# Columns and labels:
# Type in all cases: cell-based
# [1] = tested on: Human CD34+ progenitor cells; assay: Cell viability in the human CD34+ progenitors HbF induction assay
# Source text: (§1) An in-vitro system to test the ability of compound to induce fetal hemoglobin expression was developed. This system used Human CD34+ progenitor cells freshly isolated from healthy donors blood collections. Peripheral blood mononuclear cells (PBMCs) were isolated from whole blood by density gradient centrifugation using SepMatem-50 and Lymphoprep™ from Stem Cell Technologies. CD34^+ hematopoietic progenitor cells (HSPCs) were isolated from PBMCs by magnetic separation using Stem Cells Technologies CD34+ positive selection/isolation kit (Stem Cell Technologies, #18056). CD34 cells were cultured using a 2-phase 14 day culture system. During phase 1 (day 0 to day 7) cells were expanded. […] At day 14 cells were harvested for Fluorescent Activated Cell Sorting (FACS) analysis and for HbF quantitation by Mass spectrometry. […] Data was analyzed using FlowJo software. % HbF^+ cells and ratios H3/H3K9me2 intensities were calculated for CD71^+/CD235a^+ gated populations.
# A list of pharmacological agents was evaluated for their potential to induce fetal Hemoglobin (HbF) in order to identify combination partners for our EHMT1/2 inhibitors. HbF can be induced by toxicity; therefore, the potential of the agents to induce HbF were evaluated in the context of cell viability. […] The EHMT1/2 inhibitor Compound 205 was evaluated in combination with a fixed dose of 10 μM Hydroxyurea and 0.1 μM Pomalidomide. […]
# [2] = tested on: Human CD34+ progenitor cells; assay: Human CD34+ progenitors assay for fetal hemoglobin induction, % HbF+ cells by FACS (healthy donors); conditions: for % HbF+ cells: 26% basal level
# Source text: An in-vitro system to test the ability of compound to induce fetal hemoglobin expression was developed. This system used Human CD34+ progenitor cells freshly isolated from healthy donors blood collections. Peripheral blood mononuclear cells (PBMCs) were isolated from whole blood by density gradient centrifugation using SepMatem-50 and Lymphoprep™ from Stem Cell Technologies. CD34^+ hematopoietic progenitor cells (HSPCs) were isolated from PBMCs by magnetic separation using Stem Cells Technologies CD34+ positive selection/isolation kit (Stem Cell Technologies, #18056). CD34 cells were cultured using a 2-phase 14 day culture system. During phase 1 (day 0 to day 7) cells were expanded. Expansion was followed by phase 2 (day 7 to day 14) where cells were differentiated toward the erythroid lineage. Compounds were added on day 1 and day 7 as 1000× stock after being diluted in dimethyl sulfoxide (DMSO) in a 3-fold series. Final DMSO concentration in the assay was 0.1%. At day 14 cells were harvested for Fluorescent Activated Cell Sorting (FACS) analysis and for HbF quantitation by Mass spectrometry. For cell surface and intracellular marker analysis by FACS, cells were fixed and stained with a cocktail of antibodies covering erythroid lineage markers, HbF and H3 and H3K9me2 (Table 11). Data was collected using Canto II flow cytometer (BD Biosciences) and the FACSDiva software. Data was analyzed using FlowJo software. % HbF^+ cells and ratios H3/H3K9me2 intensities were calculated for CD71^+/CD235a^+ gated populations.
# A list of pharmacological agents was evaluated for their potential to induce fetal Hemoglobin (HbF) in order to identify combination partners for our EHMT1/2 inhibitors. HbF can be induced by toxicity; therefore, the potential of the agents to induce HbF were evaluated in the context of cell viability. (Table 12). The EHMT1/2 inhibitor Compound 205 was evaluated in combination with a fixed dose of 10 μM Hydroxyurea and 0.1 μM Pomalidomide. […] 10 μM Hydroxyurea as a single agent was able to induce 01% HbF^+ cells from 26% basal level to 45% while 0.016 μM compound 205 as a single agent induced to 45%. In combination these two agents were able to induced % HbF^+ to 63% (FIG. 3A). […] 0.1 μM Pomalidomide as a single agent was able to induce ° % HbF cells from 26% basal level to 48% while 0.016 μM compound 205 as a single agent induced to 45%. In combination these two agents were able to induce % HbF^+ to 78% (FIG. 3B).
# Hydroxyurea was also evaluated as single agent and in combination with the EHMT1/2 inhibitor compound 205 in a matrix format using CD34^+ cells isolated from a pool of 5 healthy donors. […] (FIG. 4 and FIG. 5, respectively). It is noted that for Loewe excess determination in Chalice, data was normalized to the highest and lowest Hbγ induction observed under the conditions and dose ranges in the assay.
# [3] = tested on: Human CD34+ progenitor cells; assay: Human CD34+ progenitors assay, HbF (Hbγ) quantitation by mass spectrometry; conditions: compound 205 with Hydroxyurea, matrix format, CD34+ cells from a pool of 5 healthy donors; Loewe excess in Chalice
# Source text: as §1, with “expanded. Expansion was followed by phase 2 (day 7 to day 14) where cells were differentiated toward the erythroid lineage. Compounds were added on day 1 and day 7 as 1000× stock after being diluted in dimethyl sulfoxide (DMSO) in a 3-fold series.” for “expanded.”
# Hydroxyurea was also evaluated as single agent and in combination with the EHMT1/2 inhibitor compound 205 in a matrix format using CD34^+ cells isolated from a pool of 5 healthy donors. […]
# [4] = tested on: Various cell lines; assay: Cotreatment model (7-day) combination proliferation assay, cellular ATP luminescence, Loewe synergy; conditions: several cell lines, Compound 205 and DNA hypomethylating agents, 7-day cotreatment models (FIG. 1D)
# Method: Cells were incubated for seven days under humidified atmosphere of 5% CO2 at 37° C. The final concentration of DMSO (vehicle) in the assay was 0.1% v/v. Quantification of proliferation through measurement of cellular adenosine triphosphate (ATP) was performed via a luminescent cell viability assay. Plates were read in a plate reader with luminescence module. Quantification of synergy was performed using the Loewe Additivity model and calculating the Loewe Volume (V Loewe) with the Chalice Software (Horizon) and dose response curves and IC50 vs concentration plots were generated with Graphpad Prism software.
# [5] = 0.016 μM compound 205 in combination with 0.1 μM Pomalidomide
# [6] = 0.016 μM compound 205 in combination with 10 μM Hydroxyurea
smiles,measurement,setting,value
CNc1cc(C)nc(Nc2ccc(OC)c(OCCCN3CCCC3)c2)n1 [Compound 205],cell viability,[1]; [5],> 90%
same,cell viability,[1]; [6],> 90%
same,% HbF+ cells,[2]; 0.016 μM compound 205 as a single agent,45%
same,% HbF+ cells,[2]; [5],78%
same,% HbF+ cells,[2]; [6],63%
same,combination effect on % HbF+ cells (FACS analysis),"[2]; compound 205 with Hydroxyurea, matrix format, CD34+ cells from a pool of 5 healthy donors",synergistically
same,combination effect on Hbγ protein expression (MS quantification),[3],synergistically
same,combination effect on proliferation (Loewe),[4],synergy
